Experimental data as given in US20250084101A1, “COMPOUND FOR INHIBITING AND DEGRADING IRAK4, AND PHARMACEUTICAL COMPOSITION AND PHARMACEUTICAL APPLICATION THEREOF” (XIZANG HAISCO PHARMACEUTICAL CO., LTD., priority 2022, published 2025).
Structures can show the parent of a compound that is named as a salt.

Each compound was assayed against T1, IRAK4 protein (Homo sapiens, UniProt Q9NWZ3) (assay: IRAK4 degradation activity in hPBMC cells (24 hours)). Conditions: not given.
T1 construct: endogenous in cells; host or cells: human peripheral blood mononuclear cells (hPBMC) from healthy volunteers
T1 sequence (Q9NWZ3 1-460): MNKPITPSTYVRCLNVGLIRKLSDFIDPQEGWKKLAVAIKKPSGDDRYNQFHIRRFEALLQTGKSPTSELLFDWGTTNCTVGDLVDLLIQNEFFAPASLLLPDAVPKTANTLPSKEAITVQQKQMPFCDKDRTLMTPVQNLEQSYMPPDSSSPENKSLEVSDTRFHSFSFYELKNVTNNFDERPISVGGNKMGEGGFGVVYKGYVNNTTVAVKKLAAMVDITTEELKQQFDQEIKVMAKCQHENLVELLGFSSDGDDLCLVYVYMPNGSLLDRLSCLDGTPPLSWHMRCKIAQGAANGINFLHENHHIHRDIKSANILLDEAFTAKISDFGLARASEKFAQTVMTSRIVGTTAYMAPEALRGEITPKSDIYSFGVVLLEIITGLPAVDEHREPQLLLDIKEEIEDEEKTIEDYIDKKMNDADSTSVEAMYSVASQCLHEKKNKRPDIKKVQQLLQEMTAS
Type: cell-based
Description: hPBMC cells are human peripheral blood mononuclear cells. Peripheral venous blood was taken from healthy volunteers, and hPBMCs were isolated using Ficoll density gradient centrifugation (Ficoll-Paque™ PLUS 1.077, GE, Cat. 17-1140-02). Culture conditions: RPMI-1640+10% FBS+1% penicillin-streptomycin solution. The cells were cultured in an incubator at 37° C. and 5% CO2. The cells were plated in a 24-well plate at 1×10^6 cells/well. After plating, compounds at different concentrations were added, and the cells were cultured in an incubator at 37° C. and 5% CO2 for 24 hours. After the culture was completed, the cells were collected, and RIPA lysis buffer (beyotime, Cat. P0013B) was added. The cells were lysed on ice for 20 minutes, and then centrifuged at 12000 rpm at 4° C. for 10 minutes. The protein sample of the supernatant was collected, the protein was quantified using a BCA kit (Beyotime, Cat. P0009), and then the protein was diluted to 1 mg/mL. The expression of IRAK4 (CST, Cat. 4363S) and the internal reference cofilin (CST, Cat. 5175S) were detected using a fully automated western blot quantitative analyzer (Proteinsimple). The expression level of IRAK4 relative to the internal reference was calculated using compass software. The remaining IRAK4 protein IRAK4% relative to the vehicle control group at different doses was calculated using formula (1), and the IRAK4 protein degradation relative to the vehicle control group at different doses was calculated using formula (2), where IRAK4administration was the expression level of IRAK4 in the administration groups at different doses, and IRAK4vehicle was the expression level of IRAK4 in the vehicle control group. An IRAK4 degradation-drug concentration curve was fit using Graphpad Prism 8 software, and the DC50 was calculated.

Compound	DC50 [nM]
Cn1nc(C2CCC(=O)NC2=O)c2cccc(C#CCO[C@@H]3CCN(C[C@H]4CC[C@H](n5cc(NC(=O)c6cnn7ccc(N8CCO[C@@H](CO)C8)nc67)c(C(F)F)n5)CC4)C[C@@H]3F)c21 (single isomer, unassigned) [Chiral isomer 2 of compound 19]	< 20

Same assay, conditions: 100 nM, relative to vehicle control

Compound	Remaining IRAK4 protein IRAK4%
Cn1nc(C2CCC(=O)NC2=O)c2cccc(C#CCOC3CCN(C[C@H]4CC[C@H](n5cc(NC(=O)c6cnn7cc(F)c(N8C[C@H]9C[C@@H]8CO9)nc67)c(C(F)F)n5)CC4)CC3)c21 (some centres unmarked) [Trifluoroacetate salt of compound 15]	B (10% < B ≤ 50%)
Cn1nc(C2CCC(=O)NC2=O)c2cccc(C#CCO[C@@H]3CCN(C[C@H]4CC[C@H](n5cc(NC(=O)c6cnn7ccc(N8C[C@H]9C[C@@H]8CO9)nc67)c(C(F)F)n5)CC4)C[C@H]3F)c21 (some centres unmarked) [Compound 13]	B (10% < B ≤ 50%)
CN(C[C@H]1CC[C@H](n2cc(NC(=O)c3cnn4ccc(N5C[C@H]6C[C@@H]5CO6)nc34)c(C(F)F)n2)CC1)C1CCN(Cc2cccc3c(C4CCC(=O)NC4=O)nn(C)c23)CC1 (some centres unmarked) [Compound 1]	B (10% < B ≤ 50%)

Further lines, results first:

Remaining IRAK4 protein IRAK4%	Compound
B (10% < B ≤ 50%)	CC(C)n1nc(C2CCC(=O)NC2=O)c2cccc(C#CCOC3CCN(C[C@H]4CC[C@H](n5cc(NC(=O)c6cnn7ccc(N8C[C@H]9C[C@@H]8CO9)nc67)c(C(F)F)n5)CC4)CC3)c21 (single isomer, unassigned) [Chiral isomer 1 of compound 8]
A (A ≤ 10%)	[2H]C([2H])([2H])n1nc(C2CCC(=O)NC2=O)c2cccc(C#CCOC3CCN(C[C@H]4CC[C@H](n5cc(NC(=O)c6cnn7ccc(N8C[C@H]9C[C@@H]8CO9)nc67)c(C(F)F)n5)CC4)CC3)c21 (relative stereo) [Compound 7, Trans-5-((1R,4R)-2-oxa-5-azabicyclo[2.2.1]heptan-5-yl)-N-(3-(difluoromethyl)-1-(4-((4-((3-(3-(2,6-dioxopiperidin-3-yl)-1-(methyl-d3)-1H-indazol-7-yl)prop-2-yn-1-yl)oxy)piperidin-1-yl)methyl)cyclohexyl)-1H-pyrazol-4-yl) pyrazolo[1,5-a]pyrimidine-3-carboxamide]
A (A ≤ 10%)	CCn1nc(C2CCC(=O)NC2=O)c2cccc(C#CCOC3CCN(C[C@H]4CC[C@H](n5cc(NC(=O)c6cnn7ccc(N8C[C@H]9C[C@@H]8CO9)nc67)c(C(F)F)n5)CC4)CC3)c21 (some centres unmarked) [Compound 6]
A (A ≤ 10%)	O=C1CCC(c2nn(C3CC3)c3c(C#CCOC4CCN(C[C@H]5CC[C@H](n6cc(NC(=O)c7cnn8ccc(N9C[C@H]%10C[C@@H]9CO%10)nc78)c(C(F)F)n6)CC5)CC4)cccc23)C(=O)N1 (some centres unmarked) [Compound 16]
